Results reported in patent publication EP4813992A1, “POLYARYL DERIVATIVE AND USE THEREOF” (Hangzhou HealZen Therapeutics Co., Ltd., priority 2023, dated 2025).

Biological target: HPK1 kinase (Homo sapiens, UniProt Q92918)
Test: Lantha screen assay, inhibitory effect on HPK1 kinase
Assay type: biochemical
Settings: initial compound concentration 1 µM
Protocol: The Lantha screen assay is used to evaluate the inhibitory effect of the compounds on HPK1 kinase. • a) Kinase buffer: 50 mM HEPES (pH 7.5), 10 mM MgCl2, 4 mM DTT, 0.01% Tween-20, 0.01% BSA. • b) Compound Preparation: The compound is diluted with DMSO, and the initial detection concentration of the compound is 1 µM and is diluted to the corresponding concentration. • c) Kinase response and termination: A kinase solution is prepared by adding kinase buffer, the kinase solution and the compound are added to the test plate to be incubated at room temperature for 10 minutes. Fluorescein-PKC and ATP are added to the kinase buffer to form a substrate solution, and 5 µl of the substrate solution is added to the test plate to start the reaction to be incubated at room temperature for 90 minutes; then, 10 µl of a mixture of antibody and EDTA is added to terminate the reaction to be incubated at room temperature for 60 minutes. • d) The date is read by Envision instrument to plot a curve with the Log concentration of the inhibitor as the X-axis and the inhibition rate as the Y-axis, and then the formula Y=Bottom + (Top-Bottom)/(1+(IC50/X)^HillSlope) is used to obtain IC50. Table 1 Inhibitory activity the compounds of the invention on HPK1 kinase

HPK1 kinase, sequence (Q92918 whole entry): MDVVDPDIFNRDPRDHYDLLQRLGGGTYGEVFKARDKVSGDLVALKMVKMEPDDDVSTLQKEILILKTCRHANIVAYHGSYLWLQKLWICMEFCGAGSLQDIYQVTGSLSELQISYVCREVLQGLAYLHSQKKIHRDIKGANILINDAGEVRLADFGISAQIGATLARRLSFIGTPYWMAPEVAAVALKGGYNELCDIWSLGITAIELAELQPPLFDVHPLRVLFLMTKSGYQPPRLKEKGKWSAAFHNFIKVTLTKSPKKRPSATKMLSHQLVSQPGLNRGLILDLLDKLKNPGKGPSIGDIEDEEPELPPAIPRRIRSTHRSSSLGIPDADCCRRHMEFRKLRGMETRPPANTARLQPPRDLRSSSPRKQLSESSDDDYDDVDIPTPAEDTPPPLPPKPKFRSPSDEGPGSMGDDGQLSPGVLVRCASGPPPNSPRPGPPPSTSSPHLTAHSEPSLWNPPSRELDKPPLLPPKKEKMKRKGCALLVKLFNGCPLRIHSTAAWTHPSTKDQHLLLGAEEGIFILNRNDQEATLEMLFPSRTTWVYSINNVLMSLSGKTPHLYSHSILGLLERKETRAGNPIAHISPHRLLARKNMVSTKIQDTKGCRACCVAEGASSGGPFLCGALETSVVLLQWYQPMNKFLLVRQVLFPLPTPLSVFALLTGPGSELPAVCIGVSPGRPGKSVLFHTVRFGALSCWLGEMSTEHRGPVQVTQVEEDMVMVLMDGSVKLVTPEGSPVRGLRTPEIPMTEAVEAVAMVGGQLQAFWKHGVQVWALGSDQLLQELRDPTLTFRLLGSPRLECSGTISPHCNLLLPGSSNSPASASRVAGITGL

Work on `Cc1cc(N2CC(CN3CC=C(c4c(C)cc(-c5cnc6[nH]cc(-c7cnn(C8CCNCC8)c7)c6c5)cc4C)CC3)C2)ccc1N1CCC(=O)NC1=O` [compound 134] yielded an IC50 of under 10 nM.
`COc1cc(N2CC(CN3CC=C(c4c(C)cc(-c5cnc6scc(-c7ccc(C(=O)N(C)C)cc7)c6n5)cc4C)CC3)C2)ccc1C(=O)NC1CCC(=O)NC1=O` (stereo not shown) [compound 083] gave an IC50 of under 10 nM.
`Cc1cc(-c2cnc3[nH]cc(-c4ccc(C(=O)N(C)C)cc4)c3n2)cc(C)c1C1=CCN(CC2CN(c3ccc(C(=O)N[C@H]4CCC(=O)NC4=O)c(F)c3)C2)CC1` [compound 071] showed an IC50 of under 10 nM.
Compound `Cc1cc(N2CC(CN3CC=C(c4c(C)cc(-c5cnc6[nH]cc(-c7cnn(C8CCN(C9CCC9)CC8)c7)c6c5)cc4C)CC3)C2)ccc1N1CCC(=O)NC1=O` [compound 122] has an IC50 of under 10 nM.
Work on `Cc1cc(-c2cnc3[nH]cc(-c4ccc(C(=O)N(C)C)c(F)c4)c3n2)cc(C)c1C1=CCN(CC2CN(c3ccc(C(=O)NC4CCC(=O)NC4=O)cc3)C2)CC1` (stereo not shown) [compound 029] yielded an IC50 of under 10 nM.
For `Cc1cc(N2CC(CN3CC=C(c4ccc(-c5cnc6[nH]cc(-c7ccc(C(=O)N(C)C)cc7)c6n5)cc4F)CC3)C2)ccc1N1CCC(=O)NC1=O` [compound 133], the IC50 was under 10 nM.
With `COc1cc(N2CC(CN3CC=C(c4c(C)cc(-c5cnc6[nH]cc(-c7ccc(C(=O)N(C)C)cc7)c6n5)cc4C)CC3)C2)ccc1N1CCC(=O)NC1=O` [compound 004] the IC50 was under 10 nM.
With `Cc1cc(-c2cnc3[nH]cc(-c4ccc(C(=O)N(C)C)cc4)c3n2)cc(C)c1C1=CCN(CC2CN(c3ncc(C(=O)NC4CCC(=O)NC4=O)o3)C2)CC1` (stereo not shown) [compound 068] the IC50 was under 10 nM.
`Cc1cc(NCC2(CN3CC=C(c4c(C)cc(-c5cnc6[nH]cc(-c7ccc(C(=O)N(C)C)cc7)c6n5)cc4C)CC3)CC2)ccc1N1CCC(=O)NC1=O` [compound 040] gave an IC50 of under 10 nM.
For `Cc1cc(-c2cnc3[nH]cc(-c4ccc(C(=O)N(C)C)cc4)c3n2)cc(C)c1C1=CCN(CC2CN(c3cccc4c(C5CCC(=O)NC5=O)coc34)C2)CC1` (stereo not shown) [compound 147], the IC50 was under 10 nM.
With `Cc1cc(-c2cnc3[nH]cc(-c4ccc(C(=O)N(C)C)cc4)c3n2)cc(C)c1C1=CCN(CC2CN(c3ccc4c(c3)c(C3CCC(=O)NC3=O)nn4C)C2)CC1` (stereo not shown) [compound 145] the IC50 was under 10 nM.
In the case of `Cc1cc(-c2cnc3[nH]cc(-c4ccc(C(=O)N(C)C)cc4)c3n2)cc(C)c1C1=CCN(CC2CN(c3ccc(C(=O)NC4CCC(=O)NC4=O)c(F)c3)C2)CC1` (stereo not shown) [compound 100], the IC50 is reported as under 10 nM.
`Cc1cc(-c2c[nH]c3ncc(-c4cc(C)c(C5=CCN(CC6CN(c7ccc(C(=O)NC8CCC(=O)NC8=O)cc7)C6)CC5)c(C)c4)nc23)ccc1C(=O)N1CC2(COC2)C1` (stereo not shown) [compound 050] showed an IC50 of under 10 nM.
`CNS(=O)(=O)c1cc(C)cc(-c2cnc(N)c(Oc3cnn(C4CCN(CC5CN(c6ccc(C(=O)NC7CCC(=O)NC7=O)cc6)C5)CC4)c3)n2)c1` (stereo not shown) [compound 090] showed an IC50 of under 10 nM.
Compound `Cc1cc(-c2cnc3[nH]nc(-c4ccc(C(=O)N(C)C)cc4)c3c2)cc(C)c1C1=CCN(CC2CCN(C(=O)c3ccc(F)c(N4CCC(=O)NC4=O)c3)C2)CC1` (stereo not shown) [compound 078] has an IC50 of under 10 nM.
For `Cc1cc(N2CC(CN3CC=C(c4c(C)cc(-c5cnc6[nH]cc(-c7cnn(C8CCOCC8)c7)c6c5)cc4C)CC3)C2)ccc1N1CCC(=O)NC1=O` [compound 114], the IC50 was under 10 nM.
With `Cc1cc(N2CC(CN3CC=C(c4c(C)cc(-c5cnc6[nH]cc(-c7cnn(C8CCN(C(C)CC(=O)N(C)C)CC8)c7)c6c5)cc4C)CC3)C2)ccc1N1CCC(=O)NC1=O` (stereo not shown) [compound 136] the IC50 was under 10 nM.
With `Cc1cc(-c2cnc3[nH]cc(-c4ccc(C(=O)N(C)C)cc4)c3n2)cc(C)c1C1=CCN(CC2CC2Nc2ccc(C(=O)NC3CCC(=O)NC3=O)cc2)CC1` (stereo not shown) [compound 036] the IC50 was under 10 nM.
With `Cc1cc(-c2cnc3[nH]cc(-c4ccc(C(=O)N(C)C)nc4)c3n2)cc(C)c1C1=CCN(CC2CN(c3ccc(C(=O)NC4CCC(=O)NC4=O)cc3)C2)CC1` (stereo not shown) [compound 030] the IC50 was under 10 nM.
`Cc1cc(-c2cnc3[nH]cc(-c4ccc(C(=O)N(C)C)cc4)c3n2)cc(C)c1C1=CCN(CC#Cc2cccc3c2n(C)c(=O)n3C2CCC(=O)NC2=O)CC1` (stereo not shown) [compound 046] was tested, and the IC50 was under 10 nM.
Work on `COc1ccc(N2CCC(C)(CN3CC=C(c4c(C)cc(-c5cnc6[nH]cc(-c7ccc(C(=O)N(C)C)cc7)c6n5)cc4C)CC3)C2)cc1N1CCC(=O)NC1=O` (stereo not shown) [compound 035] yielded an IC50 of under 10 nM.
With `CCN1CCC(n2cc(-c3c[nH]c4ncc(-c5cc(C)c(C6=CCN(CC7CN(c8ccc(C9CCC(=O)NC9=O)cc8)C7)CC6)c(C)c5)nc34)cn2)CC1` (stereo not shown) [compound 056] the IC50 was under 10 nM.
`Cc1cc(-c2cnc3[nH]cc(-c4ccc(C(=O)N(C)C)cc4)c3c2)cc(C)c1C1=CCN(CC2CN(c3ccc(C(=O)NC4CCC(=O)NC4=O)cc3)C2)CC1` (stereo not shown) [compound 063] gave an IC50 of under 10 nM.
`Cc1cc(-c2cnc3[nH]cc(-c4ccc(C(=O)N(C)C)cc4)c3n2)cc(C)c1C1=CCN(C(=O)C2CN(c3ccc(C4CCC(=O)NC4=O)cc3)C2)CC1` (stereo not shown) [compound 060] showed an IC50 of under 10 nM.
`Cc1cc(N2CC(CN3CC=C(c4c(C)cc(-c5cnc6[nH]cc(-c7ccc(C(=O)N(C)C)cc7)c6n5)cc4C)CC3)C2)ccc1NC1CCC(=O)NC1=O` (stereo not shown) [compound 021] showed an IC50 of under 10 nM.
In the case of `Cc1cc(-c2cnc(N)c(Oc3ccc(C(=O)N(C)C)cc3)n2)cc(C)c1C1=CCN(CC2CN(c3ccc(C(=O)NC4CCC(=O)NC4=O)cc3)C2)CC1` (stereo not shown) [compound 093], the IC50 is reported as under 10 nM.
With `Cc1cc(-c2cnc3[nH]cc(-c4ccc(C(=O)N(C)C)cc4)c3n2)cc(C)c1C1=CCN(CC#Cc2ccc(C(=O)NC3CCC(=O)NC3=O)cc2)CC1` (stereo not shown) [compound 026] the IC50 was under 10 nM.
Compound `CCOc1cc(-c2cnc3[nH]cc(-c4ccc(C(=O)N(C)C)cc4)c3c2)ccc1C1=CCN(CC2CN(c3ccc(N4CCC(=O)NC4=O)c(C)c3)C2)CC1` [compound 137] has an IC50 of under 10 nM.
In the case of `Cc1cc(-c2cnc3[nH]cc(-c4ccc(C(=O)N(C)C)cc4)c3n2)cc(C)c1C1=CCN(CC2CN(c3ccc(NC4CCC(=O)NC4=O)cn3)C2)CC1` (stereo not shown) [compound 022], the IC50 is reported as under 10 nM.
Compound `Cc1cc(-c2cnc3[nH]cc(-c4ccc(C(=O)N(C)C)cc4)c3n2)cc(C)c1C1=CCN(C2CC(C(=O)c3ccc(F)c(N4CCC(=O)NC4=O)c3)C2)CC1` (stereo not shown) [compound 037] has an IC50 of under 10 nM.
In the case of `Cc1cc(-c2cnc3[nH]cc(-c4ccc(C(=O)N(C)C)cc4)c3n2)cc(C)c1C1=CCN(CC2CN(c3ccc(NC4CCC(=O)NC4=O)nc3)C2)CC1` (stereo not shown) [compound 087], the IC50 is reported as under 10 nM.
Work on `Cc1cc(-c2cnc3[nH]cc(-c4ccc(C(=O)N(C)C)cc4)c3n2)cc(C)c1C1=CCN(CCCC(=O)c2ccc(C3CCC(=O)NC3=O)cc2)CC1` (stereo not shown) [compound 033] yielded an IC50 of under 10 nM.
In the case of `Cc1cc(-c2cnc3[nH]cc(-c4ccc(C(=O)N5CC6(COC6)C5)cc4)c3n2)cc(C)c1C1=CCN(CC2CN(c3ccc(C(=O)NC4CCC(=O)NC4=O)cc3)C2)CC1` (stereo not shown) [compound 075], the IC50 is reported as under 10 nM.
`Cc1cc(-c2cnc3[nH]cc(-c4ccc(C(=O)N(C)C)cc4)c3n2)cnc1C1=CCN(C2CCN(c3ccc(N4CCC(=O)NC4=O)c(F)c3)C2)CC1` (stereo not shown) [compound 055] was tested, and the IC50 was under 10 nM.
Compound `COc1cc(C(=O)CCN2CC=C(c3c(C)cc(-c4cnc5[nH]cc(-c6ccc(C(=O)N(C)C)cc6)c5n4)cc3C)CC2)ccc1C1CCC(=O)NC1=O` (stereo not shown) [compound 009] has an IC50 of under 10 nM.
`Cc1cc(-c2cnc3[nH]cc(-c4ccc(C(=O)N(C)C)cc4)c3n2)cc(C)c1C1=CCN(CC2CN(c3ccc4c(c3)c(N3CCC(=O)NC3=O)nn4C)C2)CC1` [compound 143] showed an IC50 of under 10 nM.
For `Cc1ccc(C(=O)N2CC(N3CC=C(c4c(C)cc(-c5cnc6[nH]cc(-c7ccc8c(c7)CCN(C)C8=O)c6n5)cc4C)CC3)C2)cc1N1CCC(=O)NC1=O` [compound 072], the IC50 was under 10 nM.
`Cc1cc(N2CCC(CN3CC=C(c4c(C)cc(-c5cnc6[nH]cc(-c7ccc(C(=O)N(C)C)cc7)c6n5)cc4C)CC3)C2)ccc1N1CCC(=O)NC1=O` (stereo not shown) [compound 123] gave an IC50 of under 10 nM.
With `Cc1cc(-c2cnc3[nH]cc(-c4ccc(C(=O)N(C)C)cc4)c3n2)cc(C)c1C1=CCN(C2CN(c3cc(F)c(C4CCC(=O)NC4=O)c(F)c3)C2)CC1` (stereo not shown) [compound 007] the IC50 was under 10 nM.
In the case of `Cc1cc(-c2cnc3[nH]cc(-c4ccc(C(=O)N(C)C)cc4)c3n2)cc(C)c1C1=CCN(CC2CCN(c3ccc(C(=O)NC4CCC(=O)NC4=O)cc3)CC2)CC1` (stereo not shown) [compound 065], the IC50 is reported as under 10 nM.
`Cc1cc(N2CC(CN3CC=C(c4c(C)cc(-c5cnc(N)c(Oc6cnn(C7CCN(C)CC7)c6)n5)cc4C)CC3)C2)ccc1N1CCC(=O)NC1=O` [compound 092] was tested, and the IC50 was under 10 nM.
Work on `Cc1cc(-c2cnc3[nH]nc(-c4ccc(C(=O)N(C)C)cc4)c3n2)cc(C)c1C1=CCN(CC2CCN(c3ccc(N4CCC(=O)NC4=O)c(F)c3)C2)CC1` (stereo not shown) [compound 076] yielded an IC50 of under 10 nM.
With `Cc1cc(NCC2(CN3CC=C(c4c(C)cc(-c5cnc6[nH]cc(-c7ccc(C(=O)N(C)C)cc7)c6n5)cc4C)CC3)CCC2)ccc1N1CCC(=O)NC1=O` [compound 041] the IC50 was under 10 nM.
`Cc1cc(-c2cnc3[nH]cc(-c4ccc(C(=O)N(C)C)cc4)c3n2)cc(C)c1C1=CCN(CC2CN(c3ccc(NC4CCC(=O)NC4=O)c(F)c3)C2)CC1` (stereo not shown) [compound 019] gave an IC50 of under 10 nM.
Work on `Cc1cc(-c2cnc(N)c(Oc3cnn(C4CCN(C)CC4)c3)n2)cc(C)c1C1=CCN(CC2CN(c3ccc(C(=O)NC4CCC(=O)NC4=O)cc3)C2)CC1` (stereo not shown) [compound 095] yielded an IC50 of under 10 nM.
For `Cc1cc(-c2cnc3[nH]cc(-c4ccc(C(=O)N(C)C)cc4)c3n2)cc(C)c1C1=CCN(CC2CN(c3ccc(C4CCC(=O)NC4=O)cc3)C2)CC1` (stereo not shown) [compound 102], the IC50 was under 10 nM.
